Measured values as given in patent US12358908B2, “Crystals, preparation method and application of a muscarinic receptor antagonist” (BEIJING SHOWBY PHARMACEUTICAL CO., LTD., priority 2020, dated 2025).

Experiments:
M2 receptor = target: T1, M2 receptor (Homo sapiens, UniProt P08172); details: selective effect on M receptor subtypes; cited from earlier work
T1 sequence (P08172 1-466): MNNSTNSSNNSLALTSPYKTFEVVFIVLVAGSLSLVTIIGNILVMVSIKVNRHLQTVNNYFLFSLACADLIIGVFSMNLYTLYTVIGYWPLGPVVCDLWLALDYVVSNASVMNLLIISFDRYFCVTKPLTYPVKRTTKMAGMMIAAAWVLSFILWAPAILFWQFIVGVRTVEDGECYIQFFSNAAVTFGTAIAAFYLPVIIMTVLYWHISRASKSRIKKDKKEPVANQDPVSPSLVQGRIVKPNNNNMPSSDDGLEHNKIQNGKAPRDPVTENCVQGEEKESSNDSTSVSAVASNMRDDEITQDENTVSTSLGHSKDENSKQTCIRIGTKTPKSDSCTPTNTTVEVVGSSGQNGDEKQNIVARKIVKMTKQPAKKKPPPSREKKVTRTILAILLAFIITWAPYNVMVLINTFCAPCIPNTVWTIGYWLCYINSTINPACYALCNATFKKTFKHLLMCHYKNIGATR

M3 receptor = M3 receptor (Homo sapiens, UniProt P20309); details: selective effect on M receptor subtypes; cited from earlier work
Sequence of M3 receptor (P20309 whole entry): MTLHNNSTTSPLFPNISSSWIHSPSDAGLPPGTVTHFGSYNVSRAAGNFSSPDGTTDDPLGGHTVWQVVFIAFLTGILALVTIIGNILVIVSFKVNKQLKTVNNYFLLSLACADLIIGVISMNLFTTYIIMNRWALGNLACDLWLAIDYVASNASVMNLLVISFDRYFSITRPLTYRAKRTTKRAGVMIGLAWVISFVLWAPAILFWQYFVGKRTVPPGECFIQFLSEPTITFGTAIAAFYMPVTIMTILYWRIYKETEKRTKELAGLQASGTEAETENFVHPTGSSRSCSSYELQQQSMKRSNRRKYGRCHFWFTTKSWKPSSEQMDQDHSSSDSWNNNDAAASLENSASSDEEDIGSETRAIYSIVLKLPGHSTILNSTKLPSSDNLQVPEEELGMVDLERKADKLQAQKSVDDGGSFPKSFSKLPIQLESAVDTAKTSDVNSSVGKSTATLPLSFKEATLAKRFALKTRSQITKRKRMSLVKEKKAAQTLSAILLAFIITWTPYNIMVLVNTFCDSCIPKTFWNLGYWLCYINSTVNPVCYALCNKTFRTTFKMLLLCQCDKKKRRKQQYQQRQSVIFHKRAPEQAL

[1] = Dynamic vapor sorption (DVS); format: physicochemical; details: at RH 80% humidity
Description: The dynamic vapor sorption and desorption analysis was performed on the IGA SORP (Hidenlsochema) instrument. The samples were tested in gradient mode. The test was performed in a humidity range of 0% to 90%, with an incremental humidity between each gradient of 10%. For each gradient, the shortest test time was 30 min, and the longest test time was 120 min. There is a time interval of 3 min for collecting data in the system.

[2] = Stability test in 40° C./75% RH chamber with XRPD detection; format: physicochemical; details: bottle sealed with filter paper, after 3 days
Description: The solid samples obtained were analyzed with an X-ray powder diffraction analyzer (Bruker D8 advance) equipped with a LynxEye detector. The samples was scanned with a 20 scanning angle from 3° to 40°, a scanning step of 0.02°, a tube voltage of 40 KV and a tube current of 40 mA. The sample pan used for sample measurement is a zero background sample pan.
The bottle was sealed with filter paper, and put into a 40° C./75% RH chamber for stability test. After 3 days, the sample was taken out for XRPD detection.
About 10 mg of Crystal B was weighed in an 8 mL sample bottle. The bottle was sealed with filter paper, and put into a 40° C./75% RH chamber for stability test. After 3 days, the sample was taken out for XRPD detection.

O[C@@](CO[C@H]1C[N+]2(CCCOc3ccccc3)CCC1CC2)(c1ccccc1)C1CCCC1.[Br-] [Compound I, (2R,3R)-3-[(2-cyclopentyl-2-hydroxy-2-phenyl)ethoxy]-1-(3-phenoxypropyl)-1-azabicyclo[2,2,2]octylonium bromide]
effect on M2 receptor (M2 receptor): weak effect | effect on M3 receptor (M3 receptor): strong effect

O[C@@](CO[C@H]1C[N+]2(CCCOc3ccccc3)CCC1CC2)(c1ccccc1)C1CCCC1.[Br-] [Crystal B]
hygroscopic weight increment [1]: 2.58% | crystal form change by XRPD detection after stability test [2]: did not change
